{"source": "patent US20240398837A1", "about": "“Combination Therapy For Prostate Cancer” (Janssen Pharmaceutica NV, priority 2017, published 2024)", "key": {"[1]": {"tested_on": "human VCaP prostate tumors", "conditions": "for TGI (%): day 58, vs. vehicle control; for TGI (%) / Tumor on day: p.o. Qd x 35; for ILS (%): increased life span, compared with group 1 (vehicle); for MLS: median lifespan, euthanized when tumor volume reached 1500 mm^3; for Tumor on day: tumor volume, Mean ± SEM, day 58, N=10/group"}, "[2]": {"tested_on": "BRCA-1-deficient breast, BRCA-2-deficient pancreatic and ovarian cancers", "conditions": "mice; cited from earlier work"}, "[3]": {"conditions": "cited from earlier work"}, "[4]": {"target": "PARP-2 (Homo sapiens, UniProt Q9UGN5)", "sequence (Q9UGN5 whole entry, species assumed)": "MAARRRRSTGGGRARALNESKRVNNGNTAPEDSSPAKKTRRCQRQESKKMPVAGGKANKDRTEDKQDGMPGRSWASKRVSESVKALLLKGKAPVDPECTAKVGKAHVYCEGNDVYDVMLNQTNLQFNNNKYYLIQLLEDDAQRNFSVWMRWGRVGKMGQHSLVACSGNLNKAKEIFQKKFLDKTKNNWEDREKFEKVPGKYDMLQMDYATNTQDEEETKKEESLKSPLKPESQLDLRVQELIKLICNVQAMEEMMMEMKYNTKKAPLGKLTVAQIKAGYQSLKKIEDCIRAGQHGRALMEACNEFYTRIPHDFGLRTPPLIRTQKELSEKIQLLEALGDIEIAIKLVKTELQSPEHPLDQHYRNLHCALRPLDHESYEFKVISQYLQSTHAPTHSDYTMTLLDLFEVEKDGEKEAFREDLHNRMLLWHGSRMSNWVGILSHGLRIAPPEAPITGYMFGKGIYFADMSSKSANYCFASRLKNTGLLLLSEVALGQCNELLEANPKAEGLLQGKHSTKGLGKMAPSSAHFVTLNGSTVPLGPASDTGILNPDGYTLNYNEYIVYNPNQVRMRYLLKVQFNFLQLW", "conditions": "in words; cited from earlier work"}, "[5]": {"target": "PARP-1 (Homo sapiens, UniProt P09874)", "sequence (P09874 whole entry, species assumed)": "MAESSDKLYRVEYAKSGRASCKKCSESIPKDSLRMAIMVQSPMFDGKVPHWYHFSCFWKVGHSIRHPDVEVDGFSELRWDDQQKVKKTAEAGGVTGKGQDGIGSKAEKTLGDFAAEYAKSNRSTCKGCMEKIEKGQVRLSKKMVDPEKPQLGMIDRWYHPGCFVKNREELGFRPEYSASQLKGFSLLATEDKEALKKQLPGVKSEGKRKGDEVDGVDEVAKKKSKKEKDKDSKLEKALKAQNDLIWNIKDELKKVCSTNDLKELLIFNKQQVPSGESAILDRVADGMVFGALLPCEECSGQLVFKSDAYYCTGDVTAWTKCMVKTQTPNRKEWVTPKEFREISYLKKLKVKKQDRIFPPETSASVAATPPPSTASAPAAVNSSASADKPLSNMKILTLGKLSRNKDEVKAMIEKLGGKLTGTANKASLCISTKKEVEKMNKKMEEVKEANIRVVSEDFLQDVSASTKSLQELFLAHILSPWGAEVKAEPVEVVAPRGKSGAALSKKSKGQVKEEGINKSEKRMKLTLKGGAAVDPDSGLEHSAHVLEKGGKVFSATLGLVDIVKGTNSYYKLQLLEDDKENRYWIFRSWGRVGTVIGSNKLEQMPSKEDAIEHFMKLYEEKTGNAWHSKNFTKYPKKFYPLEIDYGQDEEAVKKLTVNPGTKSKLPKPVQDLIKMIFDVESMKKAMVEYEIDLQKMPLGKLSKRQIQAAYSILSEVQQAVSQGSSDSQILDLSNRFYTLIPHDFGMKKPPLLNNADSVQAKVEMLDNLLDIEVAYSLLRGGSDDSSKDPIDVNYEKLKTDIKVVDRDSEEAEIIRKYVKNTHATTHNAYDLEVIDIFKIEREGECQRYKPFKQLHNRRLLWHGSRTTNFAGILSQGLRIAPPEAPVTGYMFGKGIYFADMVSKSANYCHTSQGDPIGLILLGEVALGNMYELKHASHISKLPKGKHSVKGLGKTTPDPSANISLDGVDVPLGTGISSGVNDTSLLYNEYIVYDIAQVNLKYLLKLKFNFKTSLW", "conditions": "in words; cited from earlier work"}, "[6]": {"tested_on": "cancer cell lines that have been silenced for BRCA-1 or BRCA-2 genes, or that have BRCA-1 and BRCA-2 mutations", "conditions": "due to cell cycle arrest, followed by apoptosis; cited from earlier work"}, "[7]": {"tested_on": "CYP1A2", "conditions": "preclinical data; cited from earlier work"}, "[8]": {"conditions": "anesthetized dogs; cited from earlier work"}, "[9]": {"target": "P-glycoprotein (Homo sapiens, UniProt P08183)", "sequence (P08183 whole entry)": "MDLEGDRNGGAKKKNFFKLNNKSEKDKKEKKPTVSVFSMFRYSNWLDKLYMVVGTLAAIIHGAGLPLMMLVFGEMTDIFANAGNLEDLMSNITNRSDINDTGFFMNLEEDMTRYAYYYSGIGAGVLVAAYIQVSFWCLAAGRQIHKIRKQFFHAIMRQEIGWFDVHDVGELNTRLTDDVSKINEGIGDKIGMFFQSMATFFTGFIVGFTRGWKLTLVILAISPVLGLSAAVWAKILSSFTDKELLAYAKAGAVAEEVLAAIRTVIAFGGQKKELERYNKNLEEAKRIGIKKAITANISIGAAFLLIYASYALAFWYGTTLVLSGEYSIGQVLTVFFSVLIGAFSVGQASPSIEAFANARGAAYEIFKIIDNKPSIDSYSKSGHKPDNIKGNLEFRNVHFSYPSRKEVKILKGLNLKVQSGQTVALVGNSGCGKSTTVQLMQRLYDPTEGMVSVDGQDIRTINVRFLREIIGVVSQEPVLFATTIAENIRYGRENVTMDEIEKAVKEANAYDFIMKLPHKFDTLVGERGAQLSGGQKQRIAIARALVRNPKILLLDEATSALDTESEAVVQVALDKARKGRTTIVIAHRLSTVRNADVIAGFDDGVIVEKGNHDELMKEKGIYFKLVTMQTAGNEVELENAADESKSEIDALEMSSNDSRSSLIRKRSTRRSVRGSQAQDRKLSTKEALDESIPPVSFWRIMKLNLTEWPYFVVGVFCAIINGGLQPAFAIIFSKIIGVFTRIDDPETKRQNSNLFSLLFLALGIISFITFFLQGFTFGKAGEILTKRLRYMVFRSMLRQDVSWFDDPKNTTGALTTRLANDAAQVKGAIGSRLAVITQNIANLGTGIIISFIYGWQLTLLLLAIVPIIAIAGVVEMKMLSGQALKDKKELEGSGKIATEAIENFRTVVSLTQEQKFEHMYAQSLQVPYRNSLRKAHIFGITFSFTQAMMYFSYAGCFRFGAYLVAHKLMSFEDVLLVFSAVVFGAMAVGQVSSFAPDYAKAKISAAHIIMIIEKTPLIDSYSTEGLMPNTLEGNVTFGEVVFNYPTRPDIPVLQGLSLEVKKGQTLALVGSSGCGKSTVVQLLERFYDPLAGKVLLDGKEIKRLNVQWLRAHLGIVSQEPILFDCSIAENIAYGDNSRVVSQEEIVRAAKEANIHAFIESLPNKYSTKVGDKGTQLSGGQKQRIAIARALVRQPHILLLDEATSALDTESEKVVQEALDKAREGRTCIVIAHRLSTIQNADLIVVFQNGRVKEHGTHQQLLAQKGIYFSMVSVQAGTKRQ", "conditions": "cited from earlier work"}, "[10]": {"tested_on": "cytochrome P450 (CYP) enzymes", "conditions": "in words; cited from earlier work"}, "[11]": {"tested_on": "neurological function", "conditions": "conscious mice; cited from earlier work"}, "[12]": {"tested_on": "androgens", "conditions": "cited from earlier work"}, "[13]": {"tested_on": "mCRPC", "conditions": "cited from earlier work"}, "[14]": {"conditions": "added to castration, relative to castration alone"}}, "note": "Read-outs that look alike come from different tables or passages of the source."}
{"smiles": "C[C@]12CC[C@H](O)CC1=CC[C@@H]1[C@@H]2CC[C@]2(C)C(c3cccnc3)=CC[C@@H]12", "note": "[Abiraterone]", "values": [{"measurement": "TGI (%)", "setting": "[1]", "result": 37.6, "unit": "%"}, {"measurement": "inhibition of tumor growth", "setting": "[1]; days 37-55, compared with vehicle control", "result": "35%-46%"}, {"measurement": "ILS (%)", "setting": "[1]", "result": 13.1, "unit": "%"}, {"measurement": "MLS", "setting": "[1]", "result": 88, "unit": "days"}, {"measurement": "Tumor on day", "setting": "[1]", "result": "523 ± 51", "unit": "mm^3"}, {"measurement": "increase of MLS", "setting": "[1]; vs the vehicle control group", "result": 10.5, "unit": "days"}]}
{"smiles": "NC(=O)c1cccc2cn(-c3ccc([C@@H]4CCCNC4)cc3)nc12", "note": "[Niraparib, 2-[4-[(3S)-piperidin-3-yl]phenyl]indazole-7-carboxamide]", "values": [{"measurement": "antitumor activity", "setting": "[2]", "result": "has antitumor activity"}, {"measurement": "metabolism", "setting": "[3]; in vitro, multiple metabolic enzymes (both CYPs and non-CYPs)", "result": "limited metabolism"}, {"measurement": "clearance", "setting": "[3]; in words", "result": "low clearance drug"}, {"measurement": "activity against PARP-2", "setting": "[4]", "result": "potent activity"}, {"measurement": "activity against PARP-1", "setting": "[5]", "result": "potent activity"}, {"measurement": "TGI (%)", "setting": "[1]", "result": 20.8, "unit": "%"}, {"measurement": "inhibition of tumor growth", "setting": "[1]; days 41-55, compared with vehicle control", "result": "approximately 25%"}, {"measurement": "MLS / survival benefit", "setting": "[1]; in words, compared with the vehicle control group", "result": "did not increase MLS or provide a significant survival benefit"}, {"measurement": "ILS (%)", "setting": "[1]", "result": "−0.6", "unit": "%"}, {"measurement": "MLS", "setting": "[1]", "result": 79, "unit": "days"}, {"measurement": "Tumor on day", "setting": "[1]", "result": "664 ± 50", "unit": "mm^3"}, {"measurement": "anti-proliferative activity", "setting": "[6]", "result": "demonstrates anti-proliferative activity"}, {"measurement": "potential to induce CYP1A2 enzymes", "setting": "[7]", "result": "moderate potential"}, {"measurement": "QRS cardiac interval", "setting": "[8]", "result": "increased"}, {"measurement": "QTc interval", "setting": "[8]", "result": "unaffected"}, {"measurement": "heart rate", "setting": "[8]", "result": "increased"}, {"measurement": "mean arterial pressure", "setting": "[8]", "result": "increased"}, {"measurement": "P-glycoprotein substrate", "setting": "[9]", "result": "is a P-glycoprotein substrate"}, {"measurement": "inhibition or induction of CYP enzymes", "setting": "[10]", "result": "not a potent inhibitor or inducer"}, {"measurement": "effect on neurological function", "setting": "[11]", "result": "no effect"}]}
{"smiles": "CC(=O)O[C@H]1CC[C@@]2(C)C(=CC[C@@H]3[C@@H]2CC[C@]2(C)C(c4cccnc4)=CC[C@@H]32)C1", "note": "[abiraterone acetate, 3β-acetoxy-17-(3-pyridyl)androsta-5,16-diene]", "values": [{"measurement": "reduction of levels of DHEA", "setting": "[12]; [14]", "result": "97-98%"}, {"measurement": "reduction of levels of DHT", "setting": "[12]; [14]", "result": 85, "unit": "%"}, {"measurement": "reduction of levels of androstenedione", "setting": "[12]; [14]", "result": "77-78%"}, {"measurement": "circulating testosterone levels", "setting": "[12]; after administration of abiraterone acetate, castration gives 20 ng/dL", "result": "less than 1 ng/dL"}]}
{"smiles": "O=C(c1cc(Cc2n[nH]c(=O)c3ccccc23)ccc1F)N1CCN(C(=O)C2CC2)CC1", "note": "[olaparib]", "values": [{"measurement": "responders that were biomarker-positive for anomalies in DNA-repair genes", "setting": "[13]; 14 of the 16 responding patients", "result": 88, "unit": "%"}, {"measurement": "patients with a response", "setting": "[13]; all patients, sixteen of 49, 95% CI 20%, 48%", "result": 33, "unit": "%"}, {"measurement": "Overall survival (OS), median", "setting": "[13]; biomarker-negative group", "result": 7.5, "unit": "months"}, {"measurement": "Radiographic progression-free survival (rPFS), median", "setting": "[13]; biomarker-negative group", "result": 2.7, "unit": "months"}, {"measurement": "patients with a response", "setting": "[13]; biomarker-negative, 2 of 33", "result": 6, "unit": "%"}, {"measurement": "Overall survival (OS), median", "setting": "[13]; biomarker-positive group", "result": 13.8, "unit": "months"}, {"measurement": "Radiographic progression-free survival (rPFS), median", "setting": "[13]; biomarker-positive group", "result": 9.8, "unit": "months"}, {"measurement": "patients with a response", "setting": "[13]; patients with ATM aberrations", "result": "4 of 5"}, {"measurement": "patients with a response", "setting": "[13]; patients with BRCA-2 loss", "result": "all 7"}]}
